Patent US5776929A, “Benzodiazepine derivative” (Shionogi & Co., Ltd., priority 1993, dated 1998)
“Also recorded” adds a separate entry of the source.

What was measured:
Type in all cases: in vivo, rat (male Sprague Dawley)
[1] = test system: gastric damage due to stress induced by restricted water-immersion; test: Gastric damage due to stress induced by restricted water-immersion (single administration); details: for lesion index (% to control): 10 rats
Method: (§1) Male Sprague Dawley rats weighing from 240 to 280 g were used as experimental animals.
(§2) As H2 B, famotidine, and as gastrin receptor antagonist, L-365,260 described in Example 281 of Japanese Patent Publication (KOKAI) 63-238069 (EP 167,919; EP 284,256; U.S. Pat. No. 4,820,834; U.S. Pat. No. 5,004,741)), were used. […] For administration, a suspension of 10 mg famotidine or L-365,260 in 1 ml vehicle (0.5% methyl cellulose solution) was prepared. The combined formulation is a mixture of an equal amount of each suspension.
(§3) A previously determined dose of each test compound (1.0 ml or 3.0 ml/kg) was charged in a syringe and administered orally to a rat directly into gaster using a stainless probe needle (.phi.1.2×L 80 mm) equipped to the syringe.
(1) Gastric damage due to stress induced by restricted water-immersion (single administration test)
Twenty four hour starved (ad libitum for water) male Sprague Dawley rats (270-290 g) were orally administered with a test compound and, 30 min later, were loaded with stress in the following manner. Rats were placed in a stress cage (Natsume Seisakusyo) and immersed in water tank at 23° C. upto the level of pectoral processus xiphoideus [Takagi et al, Chem. Pharm. Bull (Tokyo) 12, 465-472 (1964)]. Seven hours later, animals were withdrawn from the water tank and killed with ether. The gaster was extracted and 1% formalin solution (13 ml) was injected in it. […] The gaster was observed under anatomic microscope (x10) and longer diameter (mm) of each damages (bleeding erosion) appearing around fundic glands was measured.

[2] = test system: gastric acid secretion; test: Basic gastric acid secretion after interruption following continuous administration (pylorus ligation); details: for basic gastric acid secretion (in words): P<0.05
Method: as §1, §2, §3
(§4) B. Continuous administration test
(§5) (A) A group consists of animals that received vehicle (0.5% methyl cellulose solution, 1 ml/kg).
(§6) (B) A group consists of animals that received famotidine (a suspension of 10 mg famotidine in 1 ml 0.5% methyl cellulose) continuously at a dose of 10 or 30 mg/kg/day.
(§7) (C) A group consists of animals that received L-365,260 continuously at a dose of 10 mg/kg/day.
(§8) (D) A group consists of animals that received a combined formulation of famotidine and L-365,260 at a dose of 10 mg/kg/day for each compound.
(2) Basic gastric acid secretion after interruption following the continuous administration of famotidine
To a rat bred normally was administered continuously famotidine at a dose of 10 or 30 mg/kg/day for a week. After the final administration, the basis gastric acid secretion (total acid excretion) was determined according to the pylorus ligation method (4-hour-method) [Shay, H. et al., Gastroenterology, 5: 43-61 (1945)]. The determination was carried out following the final administration, […], […]
Thus, rats were subjected to laparotomy under ether anesthetization and pylorus was ligated. Four hours later, gaster was extracted under ether anaesthetization and the accumulated gastric juice was collected. After centrifugation (3000 rpm, 10 min), pH and acidity of gastric juice was determined. The acidity was measured upto pH 7.0 with 0.1N NaOH. The total acid secretion (μEq/4 hr) was calculated by multiplying acidity by the volume of juice for each animal.

[3] = test system: aspirin-induced gastric mucosa damage; test: Aspirin-induced gastric mucosa damage following continuous administration; details: for lesion index (mm^2): 10 mg/kg p.o., 7 days, aspirin 200 mg/kg after two-day interruption; for aspirin-induced gastric mucosa damage (in words): continuous administration, two-day interruption
Method: as §1, §2, §3, §4, §5, §6, §7, §8
(3) Aspirin-induced gastric mucosa damage following a continuous administration of famotidine
After two-day-interruption following a continuous administration of famotidine, aspirin (200 mg/kg) was administered to rats orally. Seven hours later, gaster was extracted under ether anesthetization and subjected to formalin treatment with 1% formalin solution. The length (mm) of gastric mucosa damage appearing around fundic glands was then measured. Lesion index was calculated by adding all the measurements. Rats had been starved for 24 hr before aspirin administration (ad libitum for water).

[4] = day 2 after 7-day treatment, 10 mg/kg/day (Table 6)
[5] = day 3 after 7-day treatment, 10 mg/kg/day (Table 6)
[6] = immediately after 7 days, 10 mg/kg/day
[7] = immediately after 7 days, 30 mg/kg/day

Cc1cccc(NC(=O)N[C@@H]2N=C(c3ccccc3)c3ccccc3N(C)C2=O)c1 [L-365,260]
lesion index (% to control) ([1]; 1 mg/kg p.o.): 130.4 ± 20.6 % to control | lesion index (% to control) ([1]; 3 mg/kg p.o.): 84.7 ± 17.4 % to control | inhibition of appearance of stress gastric damage (in words) ([1]; at either dose (1 or 3 mg/kg)): does not inhibit the appearance of stress gastric damage | acid excretion after continuous administration alone (in words) ([2]; alone for a week): did not differed from those obtained in control group | total acid secretion [2, 4]: 631.4 ± 147.9 μEq/4 hr | total acid secretion [2, 5]: 681.0 ± 142.9 μEq/4 hr | lesion index (mm^2) [3]: 43.2 ± 13.7 mm^2 | aspirin-induced gastric mucosa damage (in words) [3]: the condition seemed to have tendency to deteriorate, but it is not significant

NC(N)=Nc1nc(CSCCC(N)=NS(N)(=O)=O)cs1 [Famotidine, famotidine]
lesion index (% to control) ([1]; 1 mg/kg p.o.): 33.4 ± 5.5 % to control | inhibition of appearance of stress gastric damage (in words) ([1]; 3 mg/kg): inhibited the appearance significantly | lesion index (% to control) ([1]; 3 mg/kg p.o.): 33.4 ± 5.5 % to control | basic gastric acid secretion (in words) ([2]; 10 mg/kg/day, after a 48-hour interruption): increased significantly | basic gastric acid secretion (in words) ([2]; 10 mg/kg/day, immediately after interrupting): inhibited significantly | basic gastric acid secretion (in words) ([2]; 30 mg/kg/day, after a 4-day interruption): increased significantly | basic gastric acid secretion (in words) ([2]; 30 mg/kg/day, immediately after interrupting): inhibited significantly | increase in the basic acid secretion, acid rebound (in words) ([2]; 2nd day after interruption following continuous administration): An increase in the basic acid secretion (acid rebound) was observed | inhibition (%) of total acid secretion ([2]; 24 hr after 7-day treatment, 10 mg/kg/day): -38.3% | total acid secretion ([2]; 24 hr after 7-day treatment, 10 mg/kg/day (Table 4)): 821.0 ± 214.2 μEq/4 hr | inhibition (%) of total acid secretion ([2]; 48 hr after 7-day treatment, 10 mg/kg/day): -105.7% | total acid secretion ([2]; 48 hr after 7-day treatment, 10 mg/kg/day (Table 4)): 948.9 ± 187.5 μEq/4 hr | total acid secretion [2, 4]: 788.4 ± 217.7 μEq/4 hr | total acid secretion [2, 5]: 682.4 ± 132.6 μEq/4 hr | inhibition (%) of total acid secretion ([2]; day 3 after 7-day treatment, 30 mg/kg/day): -45.3% | inhibition (%) of total acid secretion ([2]; day 4 after 7-day treatment, 30 mg/kg/day): -44.2% | inhibition (%) of total acid secretion [2, 6]: 61.6% | total acid secretion [2, 6]: 151.8 ± 29.8 μEg/49 hr | inhibition (%) of total acid secretion [2, 7]: 59.9% | total acid secretion [2, 7]: 158.4 ± 54.9 μEg/49 hr | lesion index (mm^2) [3]: 67.0 ± 14.2 mm^2 | aspirin-induced gastric mucosa damage (in words) [3]: the condition deteriorated significantly; also recorded: the ulcer index got worse significantly on the 2nd day after interruption
